# Measured values: patent publication US8663669B2, “Pesticide treatment of soils or substrates with sulphur compounds” (Arkema France, priority 2002, dated 2014)
# System: Rhizoctonia solani
# Experiment: Fungicidal efficacy by gassing, colonized barley grains
# Assay type: cell-based
# Design: Vitality score Nm (over 11 days): scale not given here; Reduction in viability RV / Reduction in vitality score RNm: unit not given here
# Conditions: for Reduction in viability RV / Reduction in vitality score RNm: compared with the control
# Experimental: These four organisms are the following:
# Rhizoctonia solani: a very important group of polyphagous pathogens in the genus Rhizoctonia and which attack very many market garden crops including sweet pepper and lettuce.
# • Sclerotinia sclerotiorum: sclerotia • Sclerotium rolfsii: sclerotia • Rhizoctonia solani: colonized barley grains (mycelium and sclerotia) • Phytophthora cactorum: colonized millet grains (mycelium, sporangia and oospores) Preparation of the Fungi (24 h Before the Gassing Operation) 1. Preparation of the sclerotia of Sclerotinia sclerotiorum and of Sclerotium rolfsii: The fungi are cultured on malt agar medium until the sclerotia are obtained. The sclerotia are collected in a sterile manner and stored dry in empty Petri dishes until they are used. The sclerotia used for the trial are over 3 months old and are perfectly dormant. 2. Preparation of Phytophthora cactorum and of Rhizoctonia solani: The millet and barley used for the multiplication of the two fungi are moistened with ultrapure water by immersing for 24 hours. The grains are then slightly drained and then distributed into flasks and autoclaved (3 autoclavings at 110° C. for 20 minutes, 3 times at 24 hour intervals). Fragments of fungal culture are introduced into the flasks which are then incubated at 22° C.±2° C. (white light 18 h) until homogeneous colonization is obtained. The grains are then removed from the flasks in a sterile manner, dried in the sterile stream of a safety cabinet and then stored in the dry state until they are used. Conditions for Gassing and for Desorption
# All the batches of fungi to be treated are placed for a few hours at the trial temperature (20° C.). Between 35 and 300 units of fungi or “propagules” (grains or sclerotia) are subjected to gassing during each trial.
# Each fumigation chamber comprising to one or more species of fungi corresponds to a glass round-bottomed flask which is impervious to the gas and has a volume of 11 litres. Each round-bottomed flask is equipped with branch connections, one at the bottom for introducing the liquid DMDS, one at the top for collecting the air sample with a syringe.
# Before introducing the gas, a partial vacuum (−500 mbar) is established in the round-bottomed flask with a vacuum pump. This makes it possible, on the one hand, to avoid the phenomenon of excess pressure due to the expansibility of DMDS in the round-bottomed flask and, on the other hand, to promote better homogeneity of the air-gas mixture in the first few seconds which follow injection. The DMDS (weighed accurately to the mg) is injected with a syringe, in liquid form, through the bottom branch connection, that is to say under the screen placed at half height of the round-bottomed flask and supporting the batches of fungi. After introducing the product, the internal pressure of the round-bottomed flask is re-established at atmospheric pressure. A magnetic stirrer operates during the entire duration of the treatment in order to properly homogenize the air-gas mixture.
# At the end of the gassing, the cover for the round-bottomed flask is removed. One minute after this operation, the batches of fungi gassed are taken out and left in the open air for 15 minutes for desorption of the DMDS. They are then transferred into a Petri dish, the latter remaining open for 5 minutes to allow perfect desorption of the gas. […]
# [1] = CT 1 050 g·h/m^3 (C 15.91 g/m^3, T 66 h)
# [2] = CT 1 402 g·h/m^3 (C 21.24 g/m^3, T 66 h)
# [3] = CT 1 450 g·h/m^3 (C 30.96 g/m^3, T 48 h)
# [4] = CT 1 899 g·h/m^3 (C 28.77 g/m^3, T 66 h)
# [5] = CT 1 981 g·h/m^3 (C 30.02 g/m^3, T 66 h)
# [6] = CT 2 460 g·h/m^3 (C 51.25 g/m^3, T 48 h)
# [7] = CT 2 471 g·h/m^3 (C 37.44 g/m^3, T 66 h)
# [8] = CT 2 837 g·h/m^3 (C 42.98 g/m^3, T 66 h)
# [9] = CT 2 974 g·h/m^3 (C 45.06 g/m^3, T 66 h)
# [10] = CT 3 169 g·h/m^3 (C 48.02 g/m^3, T 66 h)
# [11] = CT 3 467 g·h/m^3 (C 52.53 g/m^3, T 66 h)
# [12] = CT 419 g·h/m^3 (C 17.46 g/m^3, T 24 h)
# [13] = CT 625 g·h/m^3 (C 26.04 g/m^3, T 24 h)
# [14] = CT 703 g·h/m^3 (C 29.29 g/m^3, T 24 h)
# [15] = CT 907 g·h/m^3 (C 37.79 g/m^3, T 24 h)
smiles,measurement,setting,value
"CSSC [DMDS, dimethyl disulphide]",Viability V,[1],89.2%
same,Vitality score Nm (over 11 days),[1],7.0
same,Reduction in viability RV,[1],10.8
same,Reduction in vitality score RNm,[1],22.2
same,Viability V,[2],96.9%
same,Vitality score Nm (over 11 days),[2],7.6
same,Reduction in viability RV,[2],3.1
same,Reduction in vitality score RNm,[2],15.0
same,Viability V,[3],98.5%
same,Vitality score Nm (over 11 days),[3],4.4
same,Reduction in viability RV,[3],1.5
same,Reduction in vitality score RNm,[3],51.3
same,Viability V,[4],84.3%
same,Vitality score Nm (over 11 days),[4],6.0
same,Reduction in viability RV,[4],15.7
same,Reduction in vitality score RNm,[4],33.2
same,Viability V,[5],94.7%
same,Vitality score Nm (over 11 days),[5],7.4
same,Reduction in viability RV,[5],5.3
same,Reduction in vitality score RNm,[5],17.2
same,Viability V,[6],11.0%
same,Vitality score Nm (over 11 days),[6],0.3
same,Reduction in viability RV,[6],89.0
same,Reduction in vitality score RNm,[6],96.2
same,Viability V,[7],24.1%
same,Vitality score Nm (over 11 days),[7],0.6
same,Reduction in viability RV,[7],75.9
same,Reduction in vitality score RNm,[7],92.0
same,Viability V,[8],2.2%
same,Vitality score Nm (over 11 days),[8],0.1
same,Reduction in viability RV,[8],97.8
same,Reduction in vitality score RNm,[8],98.4
same,Viability V,[9],9.4%
same,Vitality score Nm (over 11 days),[9],0.1
same,Reduction in viability RV,[9],90.6
same,Reduction in vitality score RNm,[9],98.4
same,Viability V,[10],1.2%
same,Vitality score Nm (over 11 days),[10],0.05
same,Reduction in viability RV,[10],98.8
same,Reduction in vitality score RNm,[10],99.3
same,Viability V,[11],0%
same,Vitality score Nm (over 11 days),[11],0
same,Reduction in viability RV,[11],100
same,Reduction in vitality score RNm,[11],100
same,Viability V,[12],100%
same,Vitality score Nm (over 11 days),[12],9.0
same,Reduction in viability RV,[12],0
same,Reduction in vitality score RNm,[12],0
same,Viability V,[13],100%
same,Vitality score Nm (over 11 days),[13],8.7
same,Reduction in viability RV,[13],0
same,Reduction in vitality score RNm,[13],3.1
same,Viability V,[14],100%
same,Vitality score Nm (over 11 days),[14],8.3
same,Reduction in viability RV,[14],0
same,Reduction in vitality score RNm,[14],7.3
same,Viability V,[15],100%
same,Vitality score Nm (over 11 days),[15],7.1
same,Reduction in viability RV,[15],0
same,Reduction in vitality score RNm,[15],21.6
